Laboratory results reported in the NIST ThermoML archive (doi:10.1016/j.fluid.2007.03.030).
Numbers after ± are expanded uncertainties.

What was measured:
[1] = Liquid; for mass density: 298.15 K, 101.33 kPa; for vapor or sublimation pressure: Ebulliometric method (Recirculating still)
[2] = refractive index (Na D-line) (dimensionless); conditions: 298.15 K; 101.33 kPa; Liquid; Standard Abbe refractometry

CCCOCCC [dipropyl ether]
Conditions	mass density [kg/m3]	refractive index
[1]	741.81 ± 0.56	–
[2]	–	1.3784 ± 0.0005

Conditions	vapor or sublimation pressure [kPa]
[1], 363.16 K	101.3 ± 0.5

CCOCCO [2-ethoxyethan-1-ol]
Conditions	mass density [kg/m3]	refractive index
[1]	925.38 ± 0.29	–
[2]	–	1.4062 ± 0.0005

[1]
Conditions	vapor or sublimation pressure [kPa]
345.63 K	9.97 ± 0.2
349.72 K	11.98 ± 0.2
353.3 K	13.98 ± 0.2
356.42 K	15.98 ± 0.2
359.27 K	17.98 ± 0.2
363.08 K	20.96 ± 0.2
365.34 K	22.97 ± 0.2
367.46 K	24.98 ± 0.2
370.33 K	27.95 ± 0.2
373 K	30.94 ± 0.2
375.49 K	33.97 ± 0.2
378.51 K	37.93 ± 0.2
381.26 K	41.98 ± 0.2
383.78 K	45.88 ± 0.2
386.12 K	49.91 ± 0.2
388.87 K	54.89 ± 0.21
391.39 K	59.83 ± 0.21
393.83 K	64.82 ± 0.21
396.01 K	69.65 ± 0.21
398.1 K	74.57 ± 0.21
400.12 K	79.47 ± 0.21
402.11 K	84.74 ± 0.21
403.97 K	89.84 ± 0.21
405.76 K	94.91 ± 0.21
407.95 K	101.3 ± 0.21

CCCO [propan-1-ol]
Conditions	mass density [kg/m3]	refractive index
[1]	799.62 ± 0.48	–
[2]	–	1.3836 ± 0.0005

Conditions	vapor or sublimation pressure [kPa]
[1], 369.75 K	101.3 ± 0.5
